Source: ChEMBL document CHEMBL1141982, “A rate determining step change in the pre-steady state of acetylcholinesterase inhibitions by 1,n-alkane-di-N-butylcarbamates” (Bioorg Med Chem Lett, 2005)

Legend:
[1] = target: T1, Acetylcholinesterase (Homo sapiens, UniProt P22303); assay: Kinetic constant (k2) for acetylcholinesterase
[2] = target: T1, Acetylcholinesterase; assay: Kinetic constant (k-2) for acetylcholinesterase
[3] = target: T1, Acetylcholinesterase; assay: Ratio of k2/k-2 for acetylcholinesterase
[4] = target: T1, Acetylcholinesterase; assay: Inhibition constant for acetylcholinesterase
[5] = Carbamylation rate constant was determined
[6] = target: T1, Acetylcholinesterase; assay: Dissociation constant for acetylcholinesterase

T1 sequence (P22303 whole entry): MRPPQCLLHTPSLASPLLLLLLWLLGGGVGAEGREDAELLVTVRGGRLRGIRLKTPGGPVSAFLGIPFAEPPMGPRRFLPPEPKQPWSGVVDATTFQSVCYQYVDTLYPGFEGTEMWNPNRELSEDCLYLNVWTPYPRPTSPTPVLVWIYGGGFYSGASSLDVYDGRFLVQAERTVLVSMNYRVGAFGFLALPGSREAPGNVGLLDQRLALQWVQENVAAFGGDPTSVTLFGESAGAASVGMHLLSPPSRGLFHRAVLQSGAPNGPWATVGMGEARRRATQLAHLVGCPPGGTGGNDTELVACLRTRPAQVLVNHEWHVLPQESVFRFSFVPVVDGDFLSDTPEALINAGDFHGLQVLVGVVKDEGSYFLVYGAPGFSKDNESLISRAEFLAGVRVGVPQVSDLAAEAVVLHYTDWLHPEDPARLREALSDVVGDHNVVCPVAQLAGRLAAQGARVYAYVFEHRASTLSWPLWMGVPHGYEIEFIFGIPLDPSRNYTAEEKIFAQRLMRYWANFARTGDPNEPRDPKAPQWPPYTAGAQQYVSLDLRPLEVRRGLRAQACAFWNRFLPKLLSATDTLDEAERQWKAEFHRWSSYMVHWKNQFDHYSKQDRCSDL

SMILES	k2 [1]	k-2 [2]	Ratio [3]	Ki [4] [nM]	kc [5]	Ks [6] [µM]
CCCCNC(=O)OCCOC(=O)NCCCC	2.8 10e-3 1/s	0.35 10e-3 1/s	8	360	3 10e-3 1/s	2.9
CCCCNC(=O)OCCCCCCCCCCOC(=O)NCCCC	4.6 10e-3 1/s	2 10e-3 1/s	2.3	160	4.1 10e-3 1/s	0.37
CCCCNC(=O)OCCCCCCCCCCO	7.6 10e-3 1/s	3.1 10e-3 1/s	2.5	200	3.9 10e-3 1/s	0.52
CCCCNC(=O)OCCCCCCCCCCCCCCOC(=O)NCCCC	5.4 10e-3 1/s	2.4 10e-3 1/s	2.3	160	4.9 10e-3 1/s	0.36
CCCCNC(=O)OCCCCCCCCCCCCCCCCO	6.1 10e-3 1/s	3 10e-3 1/s	2	130	4.9 10e-3 1/s	0.37
CCCCNC(=O)OCCO	7.5 10e-3 1/s	5 10e-3 1/s	1.5		3.1 10e-3 1/s	2.3
CCCCNC(=O)OCCCCCCCCO	7.2 10e-3 1/s	3 10e-3 1/s	2.4	360	3.6 10e-3 1/s	0.88
CCCCNC(=O)OCCCCCCCCCCCCCCO	5.3 10e-3 1/s	4 10e-3 1/s	1.3	200	4.6 10e-3 1/s	0.45
CCCCNC(=O)OCCCCCO	8.1 10e-3 1/s	5 10e-3 1/s	2	1400	3.5 10e-3 1/s	2.2
CCCCNC(=O)OCCCCCCCCCCCCCCCCOC(=O)NCCCC	6.1 10e-3 1/s	3.1 10e-3 1/s	2	170	5.3 10e-3 1/s	0.34
CCCCNC(=O)OCCCCCCCCCCCCO	8.1 10e-3 1/s	4 10e-3 1/s	2	300	4.1 10e-3 1/s	0.65
CCCCNC(=O)OCCCCCOC(=O)NCCCC	3.4 10e-3 1/s	0.62 10e-3 1/s	5.5	250	3.3 10e-3 1/s	1.4
CCCCNC(=O)OCCCCCCCCCCCCOC(=O)NCCCC	5 10e-3 1/s	2.2 10e-3 1/s	2.2	160	4.6 10e-3 1/s	0.36
CCCCNC(=O)OCCCCCCCCOC(=O)NCCCC	4.2 10e-3 1/s	1.6 10e-3 1/s	2.6	150	4 10e-3 1/s	0.39
